Test results reported in the NIST ThermoML archive (doi:10.1021/acs.jced.6b00268).
± gives the expanded uncertainty stated by the source.

How the values were obtained:
[1] = Crystal; DTA
[2] = Molar enthalpy of transition or fusion; settings: Crystal; DSC

Normal melting temperature [1]: 80.47 ± 1.1 °C
Molar enthalpy of transition or fusion [2]: 7.45 ± 0.167 kcal/mol
SMILES: CC(C)OC(=O)C(C)(C)Oc1ccc(C(=O)c2ccc(Cl)cc2)cc1 [fenofibrate]
